From US20050209232A1, “Pyridazinone ureas as antagonists of alpha4 integrins” (priority 2004, published 2005)

How the values were obtained:
α4β1 = target: T1, α4β1 (Homo sapiens, UniProt P05556+P13612); assay: Ramos Cell Adhesion Assay (α4β1 Mediated Adhesion/VCAM-1); format: cell-based; conditions: Ramos cells adhering to recombinant hVCAM-1
T1 construct: Ramos cells, (50 μL at 2×10^6/mL) labeled with 5 μM Calcein AM; endogenous in cells; host or cells: Ramos cells
Experimental: Ramos Cell Adhesion Assay (α4β1 Mediated Adhesion/VCAM-1)
Immulon 96 well plates (Dynex) were coated with 100 μL recombinant hVCAM-1 at 4.0 μg/mL in 0.05 M NaCO3 buffer pH 9.0 overnight at 4° C. (R&D Systems). Plates were washed 2 times in PBS with 1% BSA and blocked for 1 h@room temperature in this buffer. PBS was removed and compounds to be tested (50 μL) were added at 2× concentration. Ramos cells, (50 μL at 2×10^6/mL) labeled with 5 μM Calcein AM (Molecular Probes) for 1 h at 37° C., were added to each well and allowed to adhere for 1 h at room temperature. Plates were washed 4 × in PBS+1% BSA and cells were lysed for 15 minutes in 100 μL of 1 M Tris pH 8.0 with 1% SDS. The plate was read at 485 nm excitation and 530 nm emission.

human α4β7 integrin = target: T2, human α4β7 integrin (Homo sapiens, UniProt P13612+P26010); assay: α4β7-K562 Cell Adhesion Assay (α4β7 Mediated Adhesion/MAdCAM-1); format: cell-based; conditions: K562 cells expressing human α4β7 adhering to FLAG-hMAdCAM-1, 1 mM Mn2+
T2 construct: expressed in transfected cells; host or cells: K562 cells, stably transfected
T2 sequence (P13612 34-1032): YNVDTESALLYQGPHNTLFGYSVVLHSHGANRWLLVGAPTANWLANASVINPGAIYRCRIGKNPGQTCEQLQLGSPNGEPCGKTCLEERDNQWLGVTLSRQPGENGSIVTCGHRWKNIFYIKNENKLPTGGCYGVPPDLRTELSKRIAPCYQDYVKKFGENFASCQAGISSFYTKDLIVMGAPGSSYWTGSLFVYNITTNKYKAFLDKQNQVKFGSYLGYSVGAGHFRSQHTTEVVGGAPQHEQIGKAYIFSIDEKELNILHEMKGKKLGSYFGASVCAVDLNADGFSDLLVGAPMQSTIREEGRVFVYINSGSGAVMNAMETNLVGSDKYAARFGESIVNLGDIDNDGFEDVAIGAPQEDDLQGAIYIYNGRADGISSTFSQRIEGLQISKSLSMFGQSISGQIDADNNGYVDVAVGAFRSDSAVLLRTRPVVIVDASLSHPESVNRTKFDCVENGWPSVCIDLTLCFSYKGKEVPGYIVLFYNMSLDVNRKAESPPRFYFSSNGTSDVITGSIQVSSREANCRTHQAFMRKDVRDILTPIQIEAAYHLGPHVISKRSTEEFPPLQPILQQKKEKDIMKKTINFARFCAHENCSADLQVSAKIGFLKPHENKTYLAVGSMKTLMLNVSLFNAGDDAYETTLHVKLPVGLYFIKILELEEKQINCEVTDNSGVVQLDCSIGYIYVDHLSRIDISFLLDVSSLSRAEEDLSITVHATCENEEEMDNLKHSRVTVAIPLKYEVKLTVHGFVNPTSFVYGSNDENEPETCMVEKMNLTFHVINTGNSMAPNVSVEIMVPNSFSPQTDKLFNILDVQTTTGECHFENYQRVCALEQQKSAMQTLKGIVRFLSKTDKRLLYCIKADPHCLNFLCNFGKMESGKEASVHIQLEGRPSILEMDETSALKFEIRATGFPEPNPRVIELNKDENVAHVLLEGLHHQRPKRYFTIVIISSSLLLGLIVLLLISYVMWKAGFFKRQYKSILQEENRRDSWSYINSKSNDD
T2 sequence (P26010 20-798): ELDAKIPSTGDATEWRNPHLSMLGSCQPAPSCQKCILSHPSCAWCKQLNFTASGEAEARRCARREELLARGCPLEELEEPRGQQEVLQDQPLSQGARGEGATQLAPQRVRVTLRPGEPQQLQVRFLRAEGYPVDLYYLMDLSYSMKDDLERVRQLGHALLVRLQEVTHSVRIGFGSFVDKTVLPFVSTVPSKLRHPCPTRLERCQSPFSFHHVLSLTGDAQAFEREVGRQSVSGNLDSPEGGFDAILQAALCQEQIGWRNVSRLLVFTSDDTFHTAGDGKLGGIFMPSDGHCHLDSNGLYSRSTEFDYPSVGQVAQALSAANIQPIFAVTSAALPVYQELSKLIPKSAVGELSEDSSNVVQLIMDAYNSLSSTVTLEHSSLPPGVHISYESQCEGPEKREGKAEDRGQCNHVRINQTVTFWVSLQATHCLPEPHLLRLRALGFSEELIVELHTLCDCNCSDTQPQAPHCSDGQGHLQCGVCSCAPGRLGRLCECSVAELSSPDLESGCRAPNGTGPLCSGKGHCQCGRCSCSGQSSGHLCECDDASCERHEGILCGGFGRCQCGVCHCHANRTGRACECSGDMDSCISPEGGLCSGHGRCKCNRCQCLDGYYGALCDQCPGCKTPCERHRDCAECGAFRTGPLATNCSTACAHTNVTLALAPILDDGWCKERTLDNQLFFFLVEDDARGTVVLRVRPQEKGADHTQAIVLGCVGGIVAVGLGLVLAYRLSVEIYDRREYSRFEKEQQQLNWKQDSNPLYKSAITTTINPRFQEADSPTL
Experimental: α4β7-K562 Cell Adhesion Assay (α4β7 Mediated Adhesion/MAdCAM-1)
M2 anti-FLAG Antibody Coated 96-well plates (Sigma) were coated for 1 hour at 4° C. with 2-8 μL/well recombinant FLAG-hMAdCAM-1 contained in 100 μL of Dulbecco's PBS, pH 7.4, with 1% BSA and 1 mM Mn^2+ (PBS-BSA-Mn). Plates were washed once with PBS-BSA-Mn. Buffer was removed and compounds to be tested (50 μL) were added at 2× concentration. Stably transfected K562 cells expressing human α4β7 integrin, (50 μL at 2×10^6/mL) that had been labeled with 100 μg/mL carboxymethyl fluorescein diacetate succinimidyl ester (CFDA-SE; Molecular Probes) for 15 min at 37° C. were added to each well and allowed to adhere for 1 h at room temperature. Plates were washed 4× in PBS-BSA-Mn and then cells were lysed for 2 min by addtion of 100 μL of PBS without Ca^2+, Mg^2+ supplemented with 0.1 M NaOH. The plate was read on a 96-well fluorescent plate reader at 485 nm excitation and 530 nm emission.

T1 sequence (P05556 21-798, one chain of several): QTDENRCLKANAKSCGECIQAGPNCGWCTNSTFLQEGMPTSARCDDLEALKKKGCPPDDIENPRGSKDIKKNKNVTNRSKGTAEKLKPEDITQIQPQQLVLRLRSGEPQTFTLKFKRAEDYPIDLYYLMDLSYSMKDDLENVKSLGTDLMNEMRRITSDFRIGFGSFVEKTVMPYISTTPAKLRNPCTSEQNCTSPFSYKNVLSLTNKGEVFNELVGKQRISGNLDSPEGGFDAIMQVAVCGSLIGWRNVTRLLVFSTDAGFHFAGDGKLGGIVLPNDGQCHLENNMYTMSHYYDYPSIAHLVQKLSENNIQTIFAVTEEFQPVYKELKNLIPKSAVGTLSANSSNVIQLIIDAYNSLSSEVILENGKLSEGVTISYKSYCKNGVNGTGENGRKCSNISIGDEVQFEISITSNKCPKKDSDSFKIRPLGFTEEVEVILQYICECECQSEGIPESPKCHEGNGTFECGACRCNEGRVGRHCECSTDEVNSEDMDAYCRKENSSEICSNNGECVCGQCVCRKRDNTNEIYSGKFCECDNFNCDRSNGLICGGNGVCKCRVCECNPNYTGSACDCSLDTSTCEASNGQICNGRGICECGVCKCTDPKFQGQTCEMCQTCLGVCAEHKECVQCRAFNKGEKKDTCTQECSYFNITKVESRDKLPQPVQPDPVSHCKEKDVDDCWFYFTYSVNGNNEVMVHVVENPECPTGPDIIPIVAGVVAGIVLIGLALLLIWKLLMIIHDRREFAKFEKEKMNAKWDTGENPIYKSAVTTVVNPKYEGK

SMILES | IC50 (α4β1) [µM] | IC50 (human α4β7 integrin) [µM]
COc1cnn(C)c(=O)c1-c1ccc(C[C@H](NC(=O)N(Cc2ccccc2)C(C)C)C(=O)O)cc1 [Cpd 27] | > 5 | 0.218
CCCN(C(=O)N[C@@H](Cc1ccc(-c2c(OC)cnn(C)c2=O)cc1)C(=O)O)c1ccccc1 [Cpd 50] | – | 0.354
COc1cnn(C)c(=O)c1-c1ccc(C[C@H](NC(=O)N(CC(C)C)c2ccccc2)C(=O)O)cc1 [Cpd 41] | > 5 | 0.213
COc1cnn(C)c(=O)c1-c1ccc(C[C@H](NC(=O)N(C)Cc2cnn(-c3ccccc3)c2)C(=O)O)cc1 [Cpd 29] | > 5 | 0.694
COc1cnn(C)c(=O)c1-c1ccc(C[C@H](NC(=O)N(Cc2ccccc2)c2ccccc2)C(=O)O)cc1 [Cpd 48] | > 5 | 0.067
COc1cnn(C)c(=O)c1-c1ccc(C[C@H](NC(=O)N(C)c2ccccc2OC(F)(F)F)C(=O)O)cc1 [Cpd 51] | > 5 | 0.052
COc1cccc2c1OCCCN(C(=O)N[C@@H](Cc1ccc(-c3c(OC)cnn(C)c3=O)cc1)C(=O)O)C2 [Cpd 32] | > 5 | 0.428
COc1cnn(C)c(=O)c1-c1ccc(C[C@H](NC(=O)NC2CCCCC2)C(=O)O)cc1 [Cpd 20] | – | 0.497
COc1cnn(C)c(=O)c1-c1ccc(C[C@H](NC(=O)N(CCO)C2CCCCC2)C(=O)O)cc1 [Cpd 17] | > 5 | 0.282
COc1cnn(C)c(=O)c1-c1ccc(C[C@H](NC(=O)N(CCO)Cc2ccccc2)C(=O)O)cc1 [Cpd 15] | > 5 | 0.31
COc1cnn(C)c(=O)c1-c1ccc(C[C@H](NC(=O)N(C)c2ccccc2C(F)(F)F)C(=O)O)cc1 [Cpd 52] | 4.17 | 0.037
COc1cnn(C)c(=O)c1-c1ccc(C[C@H](NC(=O)N[C@@H]2CS(=O)(=O)C[C@H]2O)C(=O)O)cc1 [Cpd 36] | > 5 | 0.674
COc1cnn(C)c(=O)c1-c1ccc(C[C@H](NC(=O)N(C)C2CCCCC2)C(=O)O)cc1 [Cpd 11] | > 5 | 0.053
COc1cnn(C)c(=O)c1-c1ccc(C[C@H](NC(=O)N2CCC[C@H]2CN2CCCC2)C(=O)O)cc1 [Cpd 39] | > 5 | 0.871
COc1cnn(C)c(=O)c1-c1ccc(C[C@H](NC(=O)N2CCN(C)CC2)C(=O)O)cc1 [Cpd 5] | > 5 | 0.469
COc1cnn(C)c(=O)c1-c1ccc(C[C@H](NC(=O)N2c3ccccc3CC2C)C(=O)O)cc1 (mixture of isomers) [Cpd 49] | > 5 | 0.39
COc1cnn(C)c(=O)c1-c1ccc(C[C@H](NC(=O)N(C(C)C)C(C)C)C(=O)O)cc1 [Cpd 1, 2-(3,3-Diisopropyl-ureido)-3-[4-(5-methoxy-2-methyl-3-oxo-2,3-dihydro-pyridazin-4-yl)-phenyl]-propionic acid] | > 1 | 0.124
COc1cnn(C)c(=O)c1-c1ccc(C[C@H](NC(=O)N2CCC[C@@H]2CNc2ccccc2)C(=O)O)cc1 [Cpd 38] | > 5 | 0.967

SMILES | IC50 (α4β1) [µM] | IC50 (human α4β7 integrin) [µM]
COc1cnn(C)c(=O)c1-c1ccc(C[C@H](NC(=O)N(C)C)C(=O)O)cc1 [Cpd 19] | – | 1.55
COc1cnn(C)c(=O)c1-c1ccc(C[C@H](NC(=O)N(O)C2CCCCC2)C(=O)O)cc1 [Cpd 26] | > 5 | 0.598
COc1cnn(C)c(=O)c1-c1ccc(C[C@H](NC(=O)N(C)c2ccccc2)C(=O)O)cc1 [Cpd 10] | > 5 | 0.063
COc1cnn(C)c(=O)c1-c1ccc(C[C@H](NC(=O)N(Nc2ccccc2)c2ccccc2)C(=O)O)cc1 [Cpd 46] | > 5 | 0.575
COc1cnn(C)c(=O)c1-c1ccc(C[C@H](NC(=O)N2CCN(C3C4CC5CC(C4)CC3C5)CC2)C(=O)O)cc1 (stereo partly drawn) [Cpd 25] | > 5 | 2.02
COc1cnn(C)c(=O)c1-c1ccc(C[C@H](NC(=O)N(C)c2ccccn2)C(=O)O)cc1 [Cpd 54] | > 5 | 0.88
COc1cnn(C)c(=O)c1-c1ccc(C[C@H](NC(=O)N(C)Cc2ccccc2)C(=O)O)cc1 [Cpd 12] | > 5 | 0.601
COc1cnn(C)c(=O)c1-c1ccc(C[C@H](NC(=O)NCCO)C(=O)O)cc1 [Cpd 7] | > 5 | 0.789
CCN(CCN(C)C)C(=O)N[C@@H](Cc1ccc(-c2c(OC)cnn(C)c2=O)cc1)C(=O)O [Cpd 37] | > 5 | 0.297
COc1cnn(C)c(=O)c1-c1ccc(C[C@H](NC(=O)N(CCO)c2ccccc2)C(=O)O)cc1 [Cpd 16] | > 5 | 0.069
COc1cnn(C)c(=O)c1-c1ccc(C[C@H](NC(=O)N2CCCN(c3nc4ccccc4o3)CC2)C(=O)O)cc1 [Cpd 30] | > 5 | 0.156
COc1cnn(C)c(=O)c1-c1ccc(C[C@H](NC(=O)N(C2CC2)C2CCN(C)CC2)C(=O)O)cc1 [Cpd 22] | > 5 | 0.135
COc1cnn(C)c(=O)c1-c1ccc(C[C@H](NC(=O)NCc2ccccc2)C(=O)O)cc1 [Cpd 9] | > 5 | 0.37
COc1cnn(C)c(=O)c1-c1ccc(C[C@H](NC(=O)N(c2ccccc2)c2ccccc2)C(=O)O)cc1 [Cpd 47] | > 5 | 1.45
COc1cnn(C)c(=O)c1-c1ccc(C[C@H](NC(=O)N[C@H]2CC3CCC2C3)C(=O)O)cc1 (stereo partly drawn) [Cpd 23] | > 5 | 0.183
COc1cnn(C)c(=O)c1-c1ccc(C[C@H](NC(=O)N2CCN(c3ncc(C(F)(F)F)cc3Cl)CC2)C(=O)O)cc1 [Cpd 24] | > 5 | 0.391
COc1cnn(C)c(=O)c1-c1ccc(C[C@H](NC(=O)N2c3ccc(F)cc3CCC2C)C(=O)O)cc1 (mixture of isomers) [Cpd 53] | > 5 | 0.128
COc1cnn(C)c(=O)c1-c1ccc(C[C@H](NC(=O)N(C)C2CCN(Cc3ccccc3)C2)C(=O)O)cc1 (stereo partly drawn) [Cpd 35] | > 5 | 1.83
